Test system: UM16 cell line
Assay: GSEA of Bru-seq data (hallmark, KEGG, GO pathways, transcription factors)
Assay type: cell-based
Parameters: ES KEGG_MISMATCH_REPAIR / ES KEGG_HUNTINGTONS_DISEASE / ES KEGG_ALZHEIMERS_DISEASE / ES KEGG_VIBRIO_CHOLERAE_INFECTION / NES KEGG_VIBRIO_CHOLERAE_INFECTION / ES KEGG_RIBOSOME / NES KEGG_RIBOSOME / NES KEGG_RNA_POLYMERASE: dose or concentration left out as unconfirmed
Text: Consistent with this observation, there are also massive metabolite pathways influenced including starch and sucrose metabolism, glycolysis and gluconeogenesis, purine metabolism, pyrimidine metabolism, N-glycan biosynthesis, etc.

[1] = 5 μM, 4 hours, transcription factors
[2] = GO_AMIDE_BIOSYNTHETIC_PROCESS, 5 μM, 4 hours, FDR q-val 1.55E−04
[3] = GO_CYTOSOLIC_LARGE_RIBOSOMAL_SUBUNIT, 5 μM, 4 hours, FDR q-val 0
[4] = GO_CYTOSOLIC_PART, 5 μM, 4 hours, FDR q-val 0
[5] = GO_CYTOSOLIC_RIBOSOME, 5 μM, 4 hours, FDR q-val 0
[6] = GO_ESTABLISHMENT_OF_PROTEIN_LOCALIZATION_TO_ENDOPLASMIC_RETICULUM, 5 μM, 4 hours, FDR q-val 0
[7] = GO_LARGE_RIBOSOMAL_SUBUNIT, 5 μM, 4 hours, FDR q-val 0
[8] = GO_MATURATION_OF_SSU_RRNA, 5 μM, 4 hours, FDR q-val 6.60E−05
[9] = GO_MULTI_ORGANISM_METABOLIC_PROCESS, 5 μM, 4 hours, FDR q-val 0
[10] = GO_NCRNA_METABOLIC_PROCESS, 5 μM, 4 hours, FDR q-val 0
[11] = GO_NCRNA_PROCESSING, 5 μM, 4 hours, FDR q-val 0
[12] = GO_NUCLEAR_TRANSCRIBED_MRNA_CATABOLIC_PROCESS_NONSENSE_MEDIATED_DECAY, 5 μM, 4 hours, FDR q-val 3.62E−05
[13] = GO_NUCLEOLAR_PART, 5 μM, 4 hours, FDR q-val 0
[14] = GO_PEPTIDE_METABOLIC_PROCESS, 5 μM, 4 hours, FDR q-val 3.46E−05
[15] = GO_PRERIBOSOME, 5 μM, 4 hours, FDR q-val 0
[16] = GO_PROTEIN_LOCALIZATION_TO_ENDOPLASMIC_RETICULUM, 5 μM, 4 hours, FDR q-val 0
[17] = GO_RIBONUCLEOPROTEIN_COMPLEX_BIOGENESIS, 5 μM, 4 hours, FDR q-val 0
[18] = GO_RIBOSOMAL_SMALL_SUBUNIT_BIOGENESIS, 5 μM, 4 hours, FDR q-val 0
[19] = GO_RIBOSOMAL_SUBUNIT, 5 μM, 4 hours, FDR q-val 0
[20] = GO_RIBOSOME, 5 μM, 4 hours, FDR q-val 0
[21] = GO_RIBOSOME_BIOGENESIS, 5 μM, 4 hours, FDR q-val 0
[22] = GO_RRNA_BINDING, 5 μM, 4 hours, FDR q-val 0
[23] = GO_RRNA_METABOLIC_PROCESS, 5 μM, 4 hours, FDR q-val 0
[24] = GO_STRUCTURAL_CONSTITUENT_OF_RIBOSOME, 5 μM, 4 hours, FDR q-val 0
[25] = GO_TRANSLATIONAL_INITIATION, 5 μM, 4 hours, FDR q-val 0
[26] = GO_TRNA_PROCESSING, 5 μM, 4 hours, FDR q-val 3.79E−05
[27] = transcription factor set AAAYWAACM_HFH4_01, 5 μM, 4 hours, FDR q-val 0.013
[28] = transcription factor set AP4_Q5, 5 μM, 4 hours, FDR q-val 0.043
[29] = transcription factor set ATF1_Q6, 5 μM, 4 hours, FDR q-val 0.053
[30] = transcription factor set FAC1_01, 5 μM, 4 hours, FDR q-val 0.043
[31] = transcription factor set FOXO1_01, 5 μM, 4 hours, FDR q-val 0.039
[32] = transcription factor set FOXO3——01, 5 μM, 4 hours, FDR q-val 0.015
[33] = transcription factor set FREAC2_01, 5 μM, 4 hours, FDR q-val 0.008
[34] = transcription factor set HFH3_01, 5 μM, 4 hours, FDR q-val 0.042
[35] = transcription factor set OCT_Q6, 5 μM, 4 hours, FDR q-val 0.051
[36] = transcription factor set RTAAACA_FREAC2_01, 5 μM, 4 hours, FDR q-val 0.025

## CCOC(=O)[C@@H]1CCCN(S(=O)(=O)c2ccc(S(=O)(=O)N(CC)CC)cc2)C1 [DX2-201, ethyl (R)-1-((4-(N,N-diethylsulfamoyl)phenyl)sulfonyl)piperidine-3-carboxylate]
[1]
  ES E2F1_Q6: −0.355
  ES E2F1_Q6_01: −0.352
  ES E2F_03: −0.360
  ES E2F_Q6: −0.352
  ES GGAANCGGAANY_UNKNOWN: −0.409
  ES MYCMAX_01: −0.425
  ES MYC_Q2: −0.429
  ES NMYC_01: −0.350
  ES SGCGSSAAA_E2F1DP2_01: −0.373
  ES YY1_Q6: −0.372
  NES E2F1_Q6: −1.568
  NES E2F1_Q6_01: −1.578
  NES E2F_03: −1.597
  NES E2F_Q6: −1.565
  NES GGAANCGGAANY_UNKNOWN: −1.661
  NES MYCMAX_01: −1.853
  NES MYC_Q2: −1.792
  NES NMYC_01: −1.545
  NES SGCGSSAAA_E2F1DP2_01: −1.581
  NES YY1_Q6: −1.643
4 hours
  ES KEGG_ALZHEIMERS_DISEASE: −0.3872
  ES KEGG_HUNTINGTONS_DISEASE: −0.4035
  ES KEGG_MISMATCH_REPAIR: −0.6381
  ES KEGG_RIBOSOME: −0.6266
  ES KEGG_VIBRIO_CHOLERAE_INFECTION: −0.4430
  NES KEGG_RIBOSOME: −2.4526
  NES KEGG_RNA_POLYMERASE: −1.9613
  NES KEGG_VIBRIO_CHOLERAE_INFECTION: −1.4689
4 hours of treatment
  DNA repair and mismatch repair gene sets (Bru-seq): downregulated
  glycolysis pathway (Bru-seq): dramatically upregulated
  myc target gene sets and E2F target gene set (Bru-seq): downregulated
  oxidative phosphorylation (Bru-seq): significantly downregulated
[2]
  ES: −0.454
  NES: −2.193
[3]
  ES: −0.629
  NES: −2.298
[4]
  ES: −0.537
  NES: −2.371
[5]
  ES: −0.626
  NES: −2.548
[6]
  ES: −0.589
  NES: −2.417
[7]
  ES: −0.585
  NES: −2.298
[8]
  ES: −0.642
  NES: −2.206
[9]
  ES: −0.557
  NES: −2.388
[10]
  ES: −0.528
  NES: −2.591
[11]
  ES: −0.594
  NES: −2.802
[12]
  ES: −0.539
  NES: −2.231
[13]
  ES: −0.630
  NES: −2.294
[14]
  ES: −0.461
  NES: −2.222
[15]
  ES: −0.648
  NES: −2.348
[16]
  ES: −0.563
  NES: −2.329
[17]
  ES: −0.552
  NES: −2.663
[18]
  ES: −0.653
  NES: −2.377
[19]
  ES: −0.581
  NES: −2.491
[20]
  ES: −0.589
  NES: −2.626
[21]
  ES: −0.616
  NES: −2.869
[22]
  ES: −0.650
  NES: −2.367
[23]
  ES: −0.604
  NES: −2.757
[24]
  ES: −0.539
  NES: −2.395
[25]
  ES: −0.590
  NES: −2.521
[26]
  ES: −0.559
  NES: −2.240
[27]
  ES: 0.431
  NES: 1.896
[28]
  ES: 0.393
  NES: 1.743
Transcription factor set AP4_Q6, 5 μM, 4 hours, FDR q-val 0.078
  ES: 0.377
Transcription factor set AREB6_04, 5 μM, 4 hours, FDR q-val 0.098
  ES: 0.346
[29]
  ES: 0.383
  NES: 1.701
Transcription factor set E47_01, 5 μM, 4 hours, FDR q-val 0.060
  ES: 0.363
[30]
  ES: 0.394
  NES: 1.751
Transcription factor set FOXJ2_02, 5 μM, 4 hours, FDR q-val 0.090
  ES: 0.364
[31]
  ES: 0.384
  NES: 1.732
Transcription factor set FOXO1_02, 5 μM, 4 hours, FDR q-val 0.007
  ES: 0.459
[32]
  ES: 0.417
  NES: 1.860
Transcription factor set FOXO4_01, 5 μM, 4 hours, FDR q-val 0.014
  ES: 0.464
Transcription factor set FOXO4_02, 5 μM, 4 hours, FDR q-val 0.007
  ES: 0.454
[33]
  ES: 0.440
  NES: 1.964
Transcription factor set FREAC3_01, 5 μM, 4 hours, FDR q-val 0.058
  ES: 0.375
[34]
  ES: 0.401
  NES: 1.733
Transcription factor set HNF3_Q6, 5 μM, 4 hours, FDR q-val 0.073
  ES: 0.392
Transcription factor set NKX62_Q2, 5 μM, 4 hours, FDR q-val 0.058
  ES: 0.387
Transcription factor set OCT1_Q5_01, 5 μM, 4 hours, FDR q-val 0.094
  ES: 0.357
[35]
  ES: 0.381
  NES: 1.697
Transcription factor set PAX2_02, 5 μM, 4 hours, FDR q-val 0.061
  ES: 0.374
[36]
  ES: 0.344
  NES: 1.816
Transcription factor set RYCACNNRNNRNCAG_UNKNOWN, 5 μM, 4 hours, FDR q-val 0.075
  ES: 0.462
Transcription factor set TTANWNANTGGM_UNKNOWN, 5 μM, 4 hours, FDR q-val 0.051
  ES: 0.511
Transcription factor set YWATTWNNRGCT_UNKNOWN, 5 μM, 4 hours, FDR q-val 0.059
  ES: 0.482
